Measurements taken from publication PMC11862924, “Phenylpyrazoles as Inhibitors of the m^6A RNA-Binding Protein YTHDF2” (JACS Au, 2025).
Entries after “also recorded” stand apart in the source; their conditions may differ.

Columns and labels:
[1] = MTT cytotoxicity assay, K562; assay type: cell-based; conditions: human, K562 cells, triplicates, read-out: Cytotoxicity against cancer cells (IC50), K562
Protocol: (§1) JAR, K562, and HCT116 cells were seeded in 96-well plates (3500 cells/well) and incubated for 8 h. The medium with different concentrations of compounds (100, 33.3, 11.1, 3.7, 1.2, and 0.4 μM) was added to the 96-well plates. Data were normalized to the medium with 0.1% DMSO. After incubation for 72 h, MTT solution (5 mg/mL, 20 μL) was added per well in a dark environment and incubated for 4 h. After the medium was discarded, DMSO (150 μL) was added per well, and the absorbance was measured at 492 nm by a plate reader (TECAN Spark).

[2] = MTT cytotoxicity assay, JAR; assay type: cell-based; conditions: human, JAR cells, triplicates, read-out: Cytotoxicity against cancer cells (IC50), JAR
Protocol: as §1

K562 and JAR cells = test: Dot blot assay of cellular RNA m6A methylation level; assay type: cell-based, human; conditions: different concentrations, highest 25 μM
Protocol: JAR and K562 cells were seeded in six-well plates (1.0 × 10^6 cells/well) and incubated overnight. The cells were scraped off directly and then washed with PBS. Total RNA was then extracted with the Aurum Total RNA Mini Kit. The RNA concentration was determined by NanoDrop 2000c (Thermo) and then heated for 5 min at 95 °C. Primary antibody Rb pAb to N^6-methyladenosine (m^6A) (Abcam, ab286164, 1:1000) and secondary antibody HRP-conjugated AffiniPure Goat Anti-Rabbit IgG(H+L) (SA00001–2, 1:8000) were used. Chemiluminescent detection was performed using a ChemiDoc MP (Bio-Rad).

[3] = MTT cytotoxicity assay, HCT116; assay type: cell-based; conditions: human, HCT116 cells, triplicates, read-out: Cytotoxicity against cancer cells (IC50), HCT116
Protocol: as §1

[4] = molecular target: T1, YTHDC1 (residues 345-509) (Homo sapiens, UniProt Q96MU7); test: FP assay with YTH domain of YTHDC1; assay type: binding; conditions: 2.0 µM YTHDC1
T1 construct: YTHDC1 (residues 345–509); made in house; host or cells: Escherichia coli BL21(DE3); plasmid from the Zhou lab (Boston College)
Protocol: (§2) The FP assay was performed in 384-well black plates (Corning no. 4514) with a total reaction volume of 15 μL. The final concentrations of protein (YTHDF2) and RNA were […], respectively, in a buffer containing 20 mM HEPES/KOH pH 7.5, 50 mM NaCl, 0.005% Tween 20, and 1 mM GSH (DTT). Compounds were incubated with protein, added FAM-m^6A RNA probe ([…](m6)ACUGUG) (purchased from IDT), and incubated at 4 °C for 30 min. The fluorescence polarization was measured using a plate reader (TECAN Spark) under an excitation wavelength of 485 nm and an emission wavelength of 535 nm with a bandwidth of 20 nm. […] The data were determined using GraphPad Prism 9.
Figure S10. The FP assay of YTHDC1 binding to the m6A RNA substrate. (A) The purification of YTHDC1 (residues 345-509), molecular weight: 19.9 kDa. (B) The anisotropy values using different concentrations of YTHDC1 with the m6A RNA probe (4 nM), which was used to decide the appropriate […] concentration for the FP (2.0 µM of YTHDC1, Z-factor: 0.54). (C) CK- […]
(§3) (1 picture or pasted object on this page, not shown here)

YTHDC2 = molecular target: T2, YTHDC2 (Homo sapiens, UniProt Q9H6S0); test: EMSA with YTHDC2; assay type: binding; conditions: m6A RNA 20 nM, 10 µM YTHDC2
T2 construct: YTHDC2 (residues 1285–1424); made in house; host or cells: Escherichia coli BL21(DE3); plasmid from the Zhou lab (Boston College)
T2 sequence (Q9H6S0 1285-1424): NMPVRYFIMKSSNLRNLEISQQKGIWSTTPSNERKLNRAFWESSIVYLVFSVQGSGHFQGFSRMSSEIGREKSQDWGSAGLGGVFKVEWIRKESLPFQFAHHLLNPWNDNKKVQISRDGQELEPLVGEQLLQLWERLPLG
Protocol: (§4) Compounds with different concentrations (3.1–100 μM) were incubated with 250 nM YTH-domain and 20 nM FAM-17mer-RNA in a buffer containing 20 mM HEPES, pH 8.2, 50 mM NaCl, 0.05% Triton X-100, and 5% v/v glycerol for 20 min at 4 °C. The samples were subjected to 12% native polyacrylamide gel and run at 120 V for 90 min at 4 °C using 0.5× TBE buffer. Gel imaging was performed in ChemiDoc MP (Bio-Rad), and Cy2/Alexa488 fluorescence was detected with a 1-min exposure time. Quantification of the gel image was performed by ImageJ.
Figure S15. EMSA using m6A RNA and YTHDC2 protein of varied concentrations as indicated.
(A) 20 nM of m6A RNA was used and 10 µM of YTHDC2 was chosen for EMSA. (B) CK-61, CK-
as §3

YTHDC1 = molecular target: T3, YTHDC1 (Homo sapiens, UniProt Q96MU7); test: EMSA with YTHDC1; assay type: binding; conditions: m6A RNA 20 nM
T3 construct: YTHDC1 (residues 345–509); made in house; host or cells: Escherichia coli BL21(DE3); plasmid from the Zhou lab (Boston College)
Protocol: as §4
Figure S14. The EMSA of YTHDC1 binding to the m6A RNA substrate. (A) The YTHDC1–RNA
complex formation in EMSA using m6A RNA (20 nM) and different concentrations of YTHDC1.
as §3

[5] = molecular target: T4, YTHDC2 (residues 1285-1424) (Homo sapiens, UniProt Q9H6S0); test: FP assay with YTH domain of YTHDC2; assay type: binding; conditions: 5.0 µM YTHDC2
T4 construct: YTHDC2 (residues 1285–1424); made in house; host or cells: Escherichia coli BL21(DE3); plasmid from the Zhou lab (Boston College)
T4 sequence (Q9H6S0 1285-1424): T2 sequence (Q9H6S0 1285-1424)
Protocol: as §2
Figure S11. The FP assay of YTHDC2 binding to the m6A RNA substrate. (A)The purification of YTHDC2 (residues 1285-1424), molecular weight: 17.4 kDa. (B) The anisotropy values using different concentrations of YTHDC2 with the m6A RNA probe (4 nM), which was used to decide the appropriate YTHDC2 concentration for the FP (5.0 µM of YTHDC2, Z-factor: 0.83). (C) The […]
as §3

Compound | IC50 at 72 h [1] | IC50 at 72 h [2] | effect on global m6A RNA abundance (dot blot, in words) (K562 and JAR cells) | IC50 at 72 h [3] | inhibitory activity against YTHDC1 in FP (in words) [4] | inhibition of m6A RNA binding to YTHDC2 in EMSA (in words) (YTHDC2) | inhibition of m6A RNA binding to YTHDC1 in EMSA (in words) (YTHDC1) | inhibitory activity against YTHDC2 in FP (in words) [5] | inhibition at 100 µM ([5]; read-out: inhibition of YTHDC2 at 100 μM in FP, 100 μM compound)
Cc1cc(O)c(C(=O)c2cnn(-c3ccc(C(=O)O)cc3)c2)cc1Cl [CK-79] | 29.4 ± 16.7 µM | 31.6 µM | did not significantly impact | 33.6 ± 14.7 µM | did not show detectable inhibitory activity; also recorded: inactive | did not show detectable inhibitory activity; also recorded: did not show detectable inhibition | did not show detectable inhibitory activity; also recorded: did not show detectable inhibition | inactive | 
O=C(O)c1ccc(-n2cc(C(=O)c3c(O)ccc4ccccc34)cn2)cc1 [CK-75] | 29.7 µM | 47.5 µM | did not significantly impact | 33.3 µM | did not show detectable inhibitory activity; also recorded: inactive | did not show detectable inhibitory activity; also recorded: did not show detectable inhibition | did not show detectable inhibitory activity; also recorded: did not show detectable inhibition | inactive | 
O=C(O)c1ccc(-n2cc(C(=O)c3cc(Cl)cc(Cl)c3O)cn2)cc1 [CK-61] | > 50 µM | > 50 µM | slight increase | > 50 µM | did not show detectable inhibitory activity | did not show detectable inhibitory activity; also recorded: no activity | did not show detectable inhibitory activity; also recorded: no activity |  | 36.1%
